From patent US20260317327A1, “CRYSTRAL OF QUINOLINE-SUBSTITUTED COMPOUND” (TAIHO PHARMACEUTICAL CO., LTD., priority 2023, published 2026)

Experiments:
[1] = Solid stability test (closed system, storage at 60 °C or 80 °C, HPLC purity, crystal form, appearance); assay type: physicochemical; conditions: for Change amount (purity) 2 weeks after / Purity 2 weeks after / Color tone change 2 weeks after / Change amount (purity) 4 weeks after / Purity 4 weeks after / Color tone change 4 weeks after: closed system; for Color tone change 2 weeks after / Color tone change 4 weeks after: visual; for Purity at the beginning: HPLC 220 nm
Method: A temperature influence was tested by using the type I crystal, solvate crystal type “b”, and amorphous solid of the compound (1) obtained in Example 1, Comparative Example 1, and Reference Example 1, respectively. An evaluation was performed by the following procedure. In addition, with regard to the appearances of the crystals and the amorphous solid, the states thereof before and after their storage were visually observed. • Storage condition: 60° C. or 80° C. (closed system) (HIFLEX (high-temperature storage machine manufactured by ETAC Engineering Co., Ltd.)) • Storage period: 2 weeks and 4 weeks • Storage amount: about 100 mg • Storage container: a glass bottle
A change in amount of related substances (amount of substances detected in addition to the compound (1)) was analyzed by HPLC in accordance with the following method. A product obtained as follows was used as a sample for analysis: about 1 mg of each sample was weighed as the compound (1); the sample was dissolved in 10 mL of a mixed liquid of acetonitrile and water (3:1 v/v); and 5 μL of the liquid was accurately weighed out.
The amount of the related substances in the sample solution was measured by HPLC analysis. The handling of each apparatus including data processing followed a method and a procedure instructed in the apparatus. • Column: InertSustain C18HP (4.6 mm×150 mm, 3 μm) manufactured by GL Sciences Inc. • UV detection: 220 nm • Column temperature: 40° C. • Flow rate: 1.0 mL/min • Sample cooler: 5° C. • Sample concentration: 0.1 mg/mL • Mobile phase A: 0.1% phosphoric acid • Mobile phase B: acetonitrile

[2] = Dynamic vapor sorption (DVS) test; assay type: physicochemical
Method: A vapor sorption test was performed by using each of the type I crystal, solvate crystal type “b”, and amorphous solid of the compound (1) obtained in Example 1, Comparative Example 1, and Reference Example 1, respectively. The vapor sorption test was performed in accordance with the following conditions. About 10 mg of a sample was loaded into a dedicated holder made of quartz, and the weights of the sample at respective humidities were continuously measured and recorded under the following conditions.

[3] = Comparison of type I crystal with metastable crystal and hydrate crystal (hygroscopicity, storage stability; data not shown); assay type: physicochemical; conditions: compared to metastable crystal and hydrate crystal
Description: In addition to Comparative Example 1, a metastable crystal and a hydrate crystal of the compound (1) were obtained and compared with the type I crystal obtained according to the method described in Example 1.

EGFR = conditions: as disclosed in Patent Document 1 (WO 2015/025936 A1); cited from earlier work

Row | SMILES | Change amount (purity) 2 weeks after ([1]; 60 °C) | Purity 2 weeks after ([1]; 60 °C) | Color tone change 2 weeks after ([1]; 60 °C) | Change amount (purity) 4 weeks after ([1]; 60 °C) | Purity 4 weeks after ([1]; 60 °C) | Color tone change 4 weeks after ([1]; 60 °C) | Change amount (purity) 2 weeks after ([1]; 80 °C) | Purity 2 weeks after ([1]; 80 °C) | Color tone change 2 weeks after ([1]; 80 °C) | Change amount (purity) 4 weeks after ([1]; 80 °C) | Purity 4 weeks after ([1]; 80 °C) | Color tone change 4 weeks after ([1]; 80 °C) | Purity at the beginning ([1]; storage at 60 °C series) | Purity at the beginning ([1]; storage at 80 °C series) | Weight increase ([2]; 95% RH, 25 °C) | also measured
1 | C=CC(=O)N[C@H]1C=C(C)c2c(-c3cnc4ccccc4c3)c3c(N)ncnc3n2C1 [Amorphous solid, (S)—N-(4-amino-6-methyl-5-(quinolin-3-yl)-8,9-dihydropyrimido[5,4-b]indolizin-8-yl)acrylamide] | −0.66% | 98.09% | Absent | −0.85% | 97.90% | Absent | −6.38% | 92.37% | Coloring | −7.90% | 90.85% | Coloring | 98.75% | 98.75% | about 10% | Weight increase ([2]; 50% RH, 25 °C): ≥ 2%
2 | C=CC(=O)N[C@H]1C=C(C)c2c(-c3cnc4ccccc4c3)c3c(N)ncnc3n2C1 [Solvate crystal type “b”, (S)—N-(4-amino-6-methyl-5-(quinolin-3-yl)-8,9-dihydropyrimido[5,4-b]indolizin-8-yl)acrylamide] | −10.60% | 88.16% | Absent | −11.55% | 87.21% | Absent | −14.49% | 84.57% | Absent | −15.38% | 83.38% | Absent | 98.76% | 98.76% | ≥ 5% | Weight increase profile (in words) ([2]; 5-95% RH, 25 °C): substantially linear weight increase starting from a low-humidity region
3 | C=CC(=O)N[C@H]1C=C(C)c2c(-c3cnc4ccccc4c3)c3c(N)ncnc3n2C1 [Type I crystal, (S)—N-(4-amino-6-methyl-5-(quinolin-3-yl)-8,9-dihydropyrimido[5,4-b]indolizin-8-yl)acrylamide] | 0.06% | 98.90% | Absent | 0.02% | 98.86% | Absent | 0.05% | 98.89% | Absent | 0.07% | 98.91% | Absent | 98.84% | 98.84% | 1.28% | Chemical purity on storage (in words) ([1]; 60 °C / 80 °C, 2 and 4 weeks): substantially remained unchanged; Overall stability of crystal (in words) ([1]; 60 °C / 80 °C, 2 and 4 weeks): extremely stable crystal; Amount of related substances on storage (in words) ([1]; 60 °C / 80 °C, 2 and 4 weeks, HPLC): substantially no increase in amount of related substances; Crystal form and color tone on storage (in words) ([1]; 60 °C / 80 °C, 2 and 4 weeks, compared to solvate crystal type “b” and amorphous solid): showed no changes; Hygroscopicity (in words) ([2]; compared to the solvate crystal type “b” and amorphous solid): less hygroscopic; Weight increase ([2]; up to 75% RH, 25 °C): less than 0.4%; Hygroscopicity, storage stability, etc. (in words) [3]: better properties in terms of hygroscopicity, storage stability, etc.
4 | C=CC(=O)N[C@H]1C=C(C)c2c(-c3cnc4ccccc4c3)c3c(N)ncnc3n2C1 [compound (1), (S)—N-(4-amino-6-methyl-5-(quinolin-3-yl)-8,9-dihydropyrimido[5,4-b]indolizin-8-yl)acrylamide] |  |  |  |  |  |  |  |  |  |  |  |  |  |  |  | EGFR-inhibiting action (in words) (EGFR): excellent EGFR-inhibiting action
